Experiments:
Tyk2 kinase domain (DH1) = Tyk2 kinase domain (DH1) (Homo sapiens (Human), UniProt P29597); assay: Tyk2 Radioactive Kinase Assay; assay type: biochemical; conditions: 10 μM compound, 10 μM ATP; for inhibition at 10 µM: read-out: Tyk2 JH1% Inhibition @ 10 μM
Experimental: (§1) The Tyk2 and JAK2 radioactive kinase assay measures the percent inhibition at the Tyk2 kinase domain (DH1) and the percent inhibition at the JAK2 kinase domain (JH1). Results of the assay are expressed as percent inhibition at 10 μM.

JAK2 kinase domain (JH1) = JAK2 kinase domain (JH1) (Homo sapiens (Human), UniProt O60674); assay: JAK2 Radioactive Kinase Assay; assay type: biochemical; conditions: 10 μM compound, 10 μM ATP; for inhibition at 10 µM: read-out: JAK2 JH1% Inhibition @ 10 μM
JAK2 kinase domain (JH1), sequence (O60674 849-1124): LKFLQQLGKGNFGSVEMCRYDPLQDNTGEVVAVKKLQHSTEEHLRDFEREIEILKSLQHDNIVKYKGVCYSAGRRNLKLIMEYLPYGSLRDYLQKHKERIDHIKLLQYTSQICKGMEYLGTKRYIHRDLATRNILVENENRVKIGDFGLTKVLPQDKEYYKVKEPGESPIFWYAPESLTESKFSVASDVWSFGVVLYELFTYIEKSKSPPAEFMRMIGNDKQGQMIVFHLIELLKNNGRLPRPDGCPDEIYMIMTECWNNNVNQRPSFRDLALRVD
Experimental: as §1

Tyk2 kinase domain (DH1), sequence (P29597 897-1176): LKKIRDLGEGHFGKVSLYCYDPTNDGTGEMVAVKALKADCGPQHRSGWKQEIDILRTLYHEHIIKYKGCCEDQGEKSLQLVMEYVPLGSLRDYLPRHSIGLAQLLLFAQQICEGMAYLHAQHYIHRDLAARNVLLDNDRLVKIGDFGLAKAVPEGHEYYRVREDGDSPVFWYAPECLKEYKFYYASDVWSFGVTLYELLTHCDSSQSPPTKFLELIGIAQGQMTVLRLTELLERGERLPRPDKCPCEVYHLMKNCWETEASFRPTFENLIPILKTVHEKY

| SMILES | Tyk2 JH1% Inhibition @ 10 μM (Tyk2 kinase domain (DH1)) | JAK2 JH1% Inhibition @ 10 μM (JAK2 kinase domain (JH1)) | inhibition at 10 µM (Tyk2 kinase domain (DH1)) | inhibition at 10 µM (JAK2 kinase domain (JH1)) |
| --- | --- | --- | --- | --- |
| CNc1cc(-c2cn(CCN3CCN(C)CC3)c3ncccc23)nc2c(C(=O)N[C@H]3CC[C@@H]3O)cnn12 [I-920, N-((1S,2S)-2-hydroxycyclobutyl)-7-(methylamino)-5-(1-(2-(4-methylpiperazin-1-yl)ethyl)-1H-pyrrolo[2,3-b]pyridin-3-yl)pyrazolo[1,5-a]pyrimidine-3-carboxamide] | A (percent inhibition at 10 μM lower than 50) | A (percent inhibition at 10 μM lower than 50) | – | – |
| CNc1cc(Nc2cccn([C@H]3CC[C@@H]3OC)c2=O)nc2c(C(=O)NC3CC3)cnn12 [I-936] | A (percent inhibition at 10 μM lower than 50) | A (percent inhibition at 10 μM lower than 50) | – | – |
| CNc1cc(Nc2cccn(-c3ccccc3F)c2=O)nc2c(C(=O)N[C@H]3CC[C@H]3O)cnn12 [I-939] | A (percent inhibition at 10 μM lower than 50) | A (percent inhibition at 10 μM lower than 50) | – | – |
| CNc1cc(Nc2cccn(-c3ccccc3F)c2=O)nc2c(C(=O)N[C@@H]3CC[C@H]3O)cnn12 [I-940] | A (percent inhibition at 10 μM lower than 50) | A (percent inhibition at 10 μM lower than 50) | – | – |
| CNc1cc(Nc2cccn(-c3cccc(F)c3)c2=O)nc2c(C(=O)N[C@H]3CC[C@H]3O)cnn12 [I-945] | – | – | < 50% | < 50% |
| CNc1cc(Nc2cccc(N3CCCC3=O)n2)nc2c(C(=O)N[C@@H]3CC[C@@H]3O)cnn12 [I-970] | – | – | < 50% | < 50% |
| CNc1cc(Nc2cccn(C(C)C)c2=O)nc2c(C(=O)N[C@H]3CC[C@H]3O)cnn12 [I-977] | A (percent inhibition at 10 μM lower than 50) | A (percent inhibition at 10 μM lower than 50) | – | – |
| CNc1cc(Nc2cccn(C(C)C)c2=O)nc2c(C(=O)N[C@@H]3CC[C@H]3O)cnn12 [I-981] | A (percent inhibition at 10 μM lower than 50) | A (percent inhibition at 10 μM lower than 50) | – | – |
| CNc1cc(Nc2cccn([C@@H]3CCC[C@@H](O)C3)c2=O)nc2c(C(=O)N[C@@H]3C[C@@H]3F)cnn12 [I-983] | A (percent inhibition at 10 μM lower than 50) | A (percent inhibition at 10 μM lower than 50) | – | – |
| CNc1cc(Nc2cccn([C@@H]3CCC[C@H](OC)C3)c2=O)nc2c(C(=O)N[C@@H]3CC[C@H]3O)cnn12 [I-994] | A (percent inhibition at 10 μM lower than 50) | A (percent inhibition at 10 μM lower than 50) | – | – |
| CNc1cc(Nc2cccn([C@H]3CC[C@@H]3OC)c2=O)nc2c(C(=O)N[C@@H]3C[C@@H]3F)cnn12 [I-1021] | – | – | < 50% | < 50% |
| CNc1cc(Nc2cccn([C@H]3CCC[C@H](OC)C3)c2=O)nc2c(C(=O)NCC3(CO)CC3)cnn12 [I-1086] | A (percent inhibition at 10 μM lower than 50) | A (percent inhibition at 10 μM lower than 50) | – | – |
| CNc1cc(Nc2cccn([C@H]3C[C@@H]3F)c2=O)nc2c(C(=O)NCC3(CO)CC3)cnn12 [I-1121, 5-((1-((1S,2S)-2-fluorocyclopropyl)-2-oxo-1,2-dihydropyridin-3-yl)amino)-N-((1-(hydroxymethyl)cyclopropyl)methyl)-7-(methylamino)pyrazolo[1,5-a]pyrimidine-3-carboxamide] | A (percent inhibition at 10 μM lower than 50) | A (percent inhibition at 10 μM lower than 50) | – | – |
